In US10233186B2, “Inhibitors of activin receptor-like kinase” (BLUEPRINT MEDICINES CORPORATION, priority 2016, dated 2019) one finds IC50 data, which are given here for 19 molecules.

One assay has as its target T1, human ALK2 R206H (Homo sapiens, UniProt Q04771, R206H).
T1 construct: expressed in transfected cells; host or cells: HEK293 (ATCC CRL1573), lentivirus transduction, blasticidin selection
T1 sequence (Q04771 21-509 R206H): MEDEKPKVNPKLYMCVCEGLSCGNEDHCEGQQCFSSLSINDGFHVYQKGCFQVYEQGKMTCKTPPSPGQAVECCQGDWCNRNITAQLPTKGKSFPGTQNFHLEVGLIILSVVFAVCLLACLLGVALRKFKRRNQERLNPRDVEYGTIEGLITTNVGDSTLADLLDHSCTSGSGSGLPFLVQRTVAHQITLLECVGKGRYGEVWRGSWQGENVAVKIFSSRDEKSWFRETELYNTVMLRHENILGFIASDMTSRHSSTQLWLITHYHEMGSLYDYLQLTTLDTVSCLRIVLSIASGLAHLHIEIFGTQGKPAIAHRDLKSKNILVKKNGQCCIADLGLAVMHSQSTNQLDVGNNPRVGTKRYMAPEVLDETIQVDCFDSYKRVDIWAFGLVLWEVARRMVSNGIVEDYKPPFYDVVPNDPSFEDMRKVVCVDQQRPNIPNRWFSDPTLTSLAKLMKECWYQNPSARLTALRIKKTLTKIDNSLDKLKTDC
The experiment in a line: Cell-based ALK2-R206H cell activity assay (Smad1-Ser463/Ser465 phosphorylation by AlphaLISA in HEK293-ALK2-R206H cells). To be noted: read-out: Cell Line (Cell Assay IC50). The method in brief:
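Stable HEK293 cells expressing C-terminally FLAG-tagged human ALK2 R206H (lentiviral, blasticidin-selected) were treated with compounds in 10-point, 3-fold dilutions from 10 μM or 1 μM top, in duplicate. Smad1 Ser463/Ser465 phosphorylation was read by AlphaLISA.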
A general note: Bead proximity is the source of the signal in Alpha formats.

Assay [1] has as its target T2, ALK2 R206H (GST-tagged mutant ALK2) (Homo sapiens, UniProt Q04771, R206H).
T2 construct: purchased Carna Bioscience or ThermoFisher 09-148 or PV6232
T2 sequence (Q04771 21-509 R206H): T1 sequence (Q04771 21-509 R206H)
Description: ALK binding assay (LANTHASCREEN TR-FRET competitive binding, displacement of Kinase Tracer 178). To be noted: ALK2 R206H, LANTHASCREEN TR-FRET competitive binding; read-out: Binding Assay (IC50). In general terms: In TR-FRET formats the signal depends on donor and acceptor labels being close together.

A word on the IC50: it is the midpoint of a concentration-inhibition curve.

For `CC(C)N1CCC[C@@H](c2ccc(-c3cc4c(N5CCN(C(=O)O[C@H]6CCOC6)CC5)ccnn4c3)cc2)C1` [Compound 826], the IC50 on human ALK2 R206H is below 100 nM; in assay [1], below 10 nM.
In the case of `CC(C)N1CCC[C@@H](c2ccc(-c3cc4c(N5CCN(C(=O)OC6(C)COC6)CC5)ccnn4c3)cc2)C1` [Compound 827], the values for the 50% inhibitory concentration (IC50) (on human ALK2 R206H; in assay [1]) were 100 to 500 nM and below 10 nM, respectively.
For the molecule `CC1OCC1OC(=O)N1CCN(c2ccnn3cc(-c4ccc([C@@H]5CCCN(C(C)C)C5)cc4)cc23)CC1` (some centres unmarked) [Compound 828], the IC50 at human ALK2 R206H is 100 to 500 nM; in assay [1] it was below 10 nM.
The corresponding values for `COC1(c2ccc(-c3cc4c(N5CCN(C(=O)NC(C)C)CC5)ccnn4c3)cc2)CCN(C(C)C)CC1` [Compound 829] are below 100 nM and below 10 nM.
As for `CCOC(=O)N1CCN(c2ccnn3cc(-c4ccc(C5(OCC)CCN(C(C)C)CC5)cc4)cc23)CC1` [Compound 831], the IC50 on human ALK2 R206H was below 100 nM; in assay [1], below 10 nM.
In the case of `CC(C)N1CCC(c2ccc(-c3cc4c(N5CCN(C(=O)SC6COC6)CC5)ccnn4c3)cc2)CC1` [Compound 832], the IC50 was below 100 nM at human ALK2 R206H and below 10 nM in assay [1].
Taken in the same sequence, the figures for `COC1(c2ccc(-c3cc4c(N5CCN(C(=O)OC6COC6)CC5)ccnn4c3)nc2)CCNC(C)(C)C1` (centres unmarked) [Compound 833] were below 100 nM and below 10 nM.
The corresponding values for `CCOC(=O)N1CCN(c2ccnn3cc(-c4ccc(C5(OC)CCN(C6COC6)CC5)cn4)cc23)CC1` [Compound 834] are below 100 nM and below 10 nM.
On to `CCOC(=O)N1CCN(c2ccnn3cc(-c4ccc(C5(OCC)CCN(C(C)C)CC5)cn4)cc23)CC1` [Compound 835], for which the IC50 was below 100 nM at human ALK2 R206H and below 10 nM in assay [1].
Regarding `CC(C)N1CCC(c2ccc(-c3cc4c(N5CCN(C(=O)OC(CO)CO)CC5)ccnn4c3)cc2)CC1` [Compound 836], the half-inhibitory concentration (IC50) at human ALK2 R206H is 100 to 500 nM; in assay [1], below 10 nM.
As to `CC(C)N1CCC[C@@H](c2ccc(-c3cc4c(N5CCN(C(=O)OC(CO)CO)CC5)ccnn4c3)cc2)C1` [Compound 837], the half-maximal inhibitory concentration (IC50) was 100 to 500 nM on human ALK2 R206H and below 10 nM in assay [1].
For `CC(C)N1CCC(c2ccc(-c3cc4c(N5CCN(C(=O)Nc6ccccc6)CC5)ccnn4c3)cc2)CC1` [Compound 838], the IC50 on human ALK2 R206H is 100 to 500 nM; in assay [1] it was below 10 nM.
Turning to `COC1(c2ccc(-c3cc4c(N5CCN(C(=O)C6CC6)CC5)ccnn4c3)c(C#N)c2)CCN(C(C)C)CC1` [Compound 839], the concentration for half-maximal inhibition (IC50) on human ALK2 R206H is below 100 nM; in assay [1] it was below 10 nM.
Taken in the same sequence, the figures for `CC(C)N1CCC[C@@H](c2ccc(-c3cc4c(N5CCN(C(=O)OC6(C#N)COC6)CC5)ccnn4c3)cc2)C1` [Compound 840] were 100 to 500 nM and below 10 nM.
Take `O=C(OC1COC1)N1CCN(c2ccnn3cc(-c4ccc(C5(C(F)(F)F)CCNCC5)cc4)cc23)CC1` [Compound 843]: the IC50 was below 100 nM on human ALK2 R206H and below 10 nM in assay [1].
On to `COC1(c2ccc(-c3cc4c(N5CCN(C(=O)NC(C)C)CC5)ccnn4c3)cc2)CCN(C2COC2)CC1` [Compound 844], for which the IC50 was below 100 nM on human ALK2 R206H and below 10 nM in assay [1].
Take `CCOC(=O)N1CCN(c2ccnn3cc(-c4ccc(C5(OCC)CCN(C6COC6)CC5)cn4)cc23)CC1` [Compound 845]: the IC50 on human ALK2 R206H is below 100 nM; in assay [1], below 10 nM.
Regarding `COC1(c2ccc(-c3cc4c(N5CCN(C(=O)OC6COC6)CC5)ccnn4c3)nc2)CCN(C(C)C)CC1` [Compound 846], the half-inhibitory concentration (IC50) at human ALK2 R206H was below 100 nM; in assay [1], below 10 nM.
Take `CC(C)N1CCC(c2ccc(-c3cc4c(N5CCN(C(=O)OC(CO)C(=O)O)CC5)ccnn4c3)cc2)CC1` (centres unmarked) [Compound 847, 3-hydroxy-2-(4-(6-(4-(1-isopropylpiperidin-4-yl)phenyl)pyrrolo[1,2-b]pyridazin-4-yl)piperazine-1-carbonyloxy)propanoic acid]: the IC50 on human ALK2 R206H is above 500 nM; in assay [1], below 10 nM.
